Assay results from patent publication US20240350643A1, “PROTEIN DEGRADATION AGENT” (SUZHOU KINTOR PHARMACEUTICALS, INC., priority 2021, published 2024).

What was measured:
c-Myc protein = molecular target: T1, c-Myc protein (Homo sapiens, UniProt P01106); test: Ability of compounds to degrade c-Myc protein in HL60 cells (ELISA); type: cell-based; details: HL-60, 1 μM compound, 24 h, read-out: HL60 cells Protein degradation rate (1 μM)
T1 construct: endogenous in cells; host or cells: HL60 cells
T1 sequence (P01106 whole entry): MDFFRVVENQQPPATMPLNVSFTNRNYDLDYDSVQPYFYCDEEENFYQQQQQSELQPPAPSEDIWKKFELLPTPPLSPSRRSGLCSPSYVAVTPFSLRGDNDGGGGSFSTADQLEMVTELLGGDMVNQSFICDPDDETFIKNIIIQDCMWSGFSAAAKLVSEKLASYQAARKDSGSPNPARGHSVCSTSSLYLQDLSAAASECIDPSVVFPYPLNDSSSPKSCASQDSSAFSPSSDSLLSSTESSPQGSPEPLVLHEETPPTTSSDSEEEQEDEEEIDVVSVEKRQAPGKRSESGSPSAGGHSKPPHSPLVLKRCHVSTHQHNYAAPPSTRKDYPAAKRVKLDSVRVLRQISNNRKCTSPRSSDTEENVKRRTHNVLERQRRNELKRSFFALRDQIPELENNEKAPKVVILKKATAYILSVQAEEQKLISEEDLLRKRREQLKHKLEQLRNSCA

HL60 cells = test: Anti-proliferation ability of compounds on HL60 cells (CTG); type: cell-based, human; details: Homo sapiens, HL-60, 72 h, 3 days, CellTiter-Glo, read-out: HL60 cells Proliferation inhibitory activity
How it was run: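 Proliferation inhibition IC50 derived from CellTiter-Glo luminescence after 3-day compound treatment of HL60 cells plated at 20000 per well, against 0.1% DMSO controls.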

| SMILES | inhibition at 1 µM (c-Myc protein) [%] | IC50 (HL60 cells) [nM] |
| --- | --- | --- |
| O=C(Cc1cccc2ccccc12)NCc1ccc(CNC(=O)c2ccc3c(c2)C(=O)N(C2CCC(=O)NC2=O)C3=O)c(C(F)(F)F)c1 (stereo not drawn) [A117] | 60 to 90 | 13.8 ± 4 |
| CN(CCn1c2ccccc2c2cccnc21)Cc1ccc(CNC(=O)c2ccc3c(c2)C(=O)N(C2CCC(=O)NC2=O)C3=O)cc1F (stereo not drawn) [A110] | 60 to 90 | 4.4 |
| O=C(CN1CCc2cccnc21)NCc1ccc(CNC(=O)c2ccc3c(c2)CN(C2CCC(=O)NC2=O)C3=O)cc1 (stereo not drawn) [A203] | 60 to 90 | 6.6 ± 0.8 |
| O=C(CN1c2ccccc2Oc2ccccc21)NCCCCCCNC(=O)c1ccc2c(c1)C(=O)N(C1CCC(=O)NC1=O)C2=O (stereo not drawn) [A7] | 30 to 60 | 320 ± 38 |
| O=C1CCC(N2C(=O)c3ccc(CNCc4ccc(C(=O)NCCc5cccc6ccccc56)cc4)cc3C2=O)C(=O)N1 (stereo not drawn) [A179] | 60 to 90 | 14 ± 4.1 |
| CN(CCc1ccc(Cl)cc1Cl)Cc1ccc(CC(=O)Nc2ccc3c(c2)C(=O)N(C2CCC(=O)NC2=O)C3=O)cc1 (stereo not drawn) [A169] | 60 to 90 | 1.9 ± 0.6 |
| CN(CCc1cccc2ccccc12)Cc1ccc(CNC(=O)c2ccc3c(c2)C(=O)N(C2CCC(=O)NC2=O)C3=O)cc1 (stereo not drawn) [A83] | 30 to 60 | 27.2 ± 7.6 |
| O=C(Cc1c(F)ccc2ccccc12)NCc1ccc(CNC(=O)c2ccc3c(c2)CN(C2CCC(=O)NC2=O)C3=O)c(C(F)(F)F)c1 (stereo not drawn) [A161] | 60 to 90 | 0.9 ± 0.1 |
| O=C(Cn1c2ccccc2c2cccnc21)NCc1ccc(CNCc2ccc3c(c2)CN(C2CCC(=O)NC2=O)C3=O)cc1 (stereo not drawn) [A194] | 60 to 90 | 0.14 ± 0.01 |
| O=C(Cn1c2ccccc2c2cccnc21)NCc1ccc(CNCc2ccc3c(c2)C(=O)N(C2CCC(=O)NC2=O)C3=O)c(F)c1 (stereo not drawn) [A190] | 60 to 90 | 1.7 ± 0.6 |
| O=C(CCc1cccc(Cl)c1Cl)NCc1ccc(CNC(=O)c2ccc3c(c2)C(=O)N(C2CCC(=O)NC2=O)C3=O)cc1 (stereo not drawn) [A61] | 60 to 90 | 108 ± 6.5 |
| CN(CCc1nccc2ccccc12)Cc1ccc(CNC(=O)c2ccc3c(c2)C(=O)N(C2CCC(=O)NC2=O)C3=O)cc1 (stereo not drawn) [A98] | 60 to 90 | 11.2 ± 1.3 |
| O=C(Cc1ccccc1Br)NCc1ccc(CNC(=O)c2ccc3c(c2)C(=O)N(C2CCC(=O)NC2=O)C3=O)cc1 (stereo not drawn) [A65] | 60 to 90 | 473 ± 93.3 |
| O=C(Cn1c2ncccc2c2cccnc21)NCCCCCCNC(=O)c1ccc2c(c1)C(=O)N(C1CCC(=O)NC1=O)C2=O (stereo not drawn) [A4] | 10 to 30 | 221 ± 54.5 |
| CN(CCc1cccc2ccccc12)Cc1ccc(CNC(=O)c2ccc3c(c2)C(=O)N(C2CCC(=O)NC2=O)C3=O)c(C(F)(F)F)c1 (stereo not drawn) [A119] | 60 to 90 | 44.4 ± 0.3 |
| CN(CCc1cccc2ccccc12)Cc1ccc(C(C)(C)NC(=O)c2ccc3c(c2)C(=O)N(C2CCC(=O)NC2=O)C3=O)cc1 (stereo not drawn) [A147] | 60 to 90 | 16.7 ± 9.5 |
| O=C(Cn1c2ccccc2c2cccnc21)NCc1ccc(CNC(=O)c2ccc3c(c2)CN(C2CCC(=O)NC2=O)C3=O)cc1OC(F)(F)F (stereo not drawn) [A208] | 60 to 90 | 0.5 |
| O=C(Cc1cccc2ccccc12)NCc1cnc(CNC(=O)c2ccc3c(c2)C(=O)N(C2CCC(=O)NC2=O)C3=O)s1 (stereo not drawn) [A133] | 10 to 30 | 5020 ± 23 |
| CN(Cc1ccc(CNC(=O)c2ccc3c(c2)C(=O)N(C2CCC(=O)NC2=O)C3=O)cc1)C(=O)Cc1cccc2ccccc12 (stereo not drawn) [A71] | 60 to 90 | 24.3 ± 8.5 |
| O=C1CCC(N2C(=O)c3ccc(C(=O)NCc4ccc(COCCc5cccc6ccccc56)cc4)cc3C2=O)C(=O)N1 (stereo not drawn) [A75] | 60 to 90 | 2730 ± 614 |
| O=C(Cn1c2ccccc2c2cccnc21)NCc1ccc(CNC(=O)c2ccc3c(c2)CN(C2CCC(=O)N(COP(=O)(O)O)C2=O)C3=O)cc1 (stereo not drawn) [A228] | 60 to 90 | 5 ± 0.2 |
| O=C1CCC(N2C(=O)c3ccc(CNCc4ccc(C(=O)NCCn5c6ccccc6c6cccnc65)cc4)cc3C2=O)C(=O)N1 (stereo not drawn) [A180] | 60 to 90 | 133 ± 48.4 |
| COc1cccc(CC(=O)NCc2ccc(CNC(=O)c3ccc4c(c3)C(=O)N(C3CCC(=O)NC3=O)C4=O)cc2)c1 (stereo not drawn) [A55] | 60 to 90 | 181 ± 32.8 |
| O=C1CCC(N2C(=O)c3ccc(C(=O)NC[C@H]4CC[C@H](CNC(=O)Nc5cccc6ccccc56)CC4)cc3C2=O)C(=O)N1 (stereo partly drawn) [A46] | 60 to 90 | 50.2 ± 14 |
| O=C1CCC(N2C(=O)c3ccc(C(=O)NC[C@H]4CC[C@H](CNC(=O)Nc5cccc6cccnc56)CC4)cc3C2=O)C(=O)N1 (stereo partly drawn) [A47] | 60 to 90 | 1040 ± 171 |

Next, values leading:

| inhibition at 1 µM (c-Myc protein) [%] | IC50 (HL60 cells) [nM] | SMILES |
| --- | --- | --- |
| 60 to 90 | 433 ± 166 | CC(C)(C(=O)NCc1ccc(CNC(=O)c2ccc3c(c2)C(=O)N(C2CCC(=O)NC2=O)C3=O)cc1)n1c2ccccc2c2cccnc21 (stereo not drawn) [A32] |
| 60 to 90 | 1.2 ± 0.1 | O=C1CCC(N2Cc3cc(C(=O)NCc4ccc(CNc5nccc(-c6cccc7ccccc67)n5)cc4)ccc3C2=O)C(=O)N1 (stereo not drawn) [A220] |
| 60 to 90 | 11 ± 1.7 | CN(CCn1c2ccccc2c2cccnc21)Cc1ccc(C2(NC(=O)c3ccc4c(c3)C(=O)N(C3CCC(=O)NC3=O)C4=O)CC2)cc1 (stereo not drawn) [A140] |
| 60 to 90 | 0.5 ± 0.1 | O=C(Cn1c2ccccc2c2cccnc21)NCc1ccc(CNC(=O)c2ccc3c(c2)CN(C2CCC(=O)NC2=O)C3=O)c(F)c1 (stereo not drawn) [A157] |
| 60 to 90 | 8.6 ± 1.8 | COc1cc(CNC(=O)c2ccc3c(c2)C(=O)N(C2CCC(=O)NC2=O)C3=O)ccc1CNC(=O)Cc1cccc2ccccc12 (stereo not drawn) [A115] |
| 60 to 90 | < 3 | O=C1CCC(N2C(=O)c3ccc(C(=O)NCc4ccc(CN(CCc5cccc6ccccc56)C(=O)C5CC5)cc4)cc3C2=O)C(=O)N1 (stereo not drawn) [A81] |
| 60 to 90 | 169 ± 50.7 | O=C1CCC(N2C(=O)c3ccc(C(=O)NCc4ccc(CN(CCn5c6ccccc6c6cccnc65)Cc5ccccc5)cc4)cc3C2=O)C(=O)N1 (stereo not drawn) [A97] |
| 10 to 30 | 6800 ± 1540 | O=C(Cc1cccc2ccccc12)NC[C@H]1CC[C@H](CNc2ccc3c(c2)C(=O)N(C2CCC(=O)NC2=O)C3=O)CC1 (stereo partly drawn) [A27] |
| 60 to 90 | 374 ± 51.1 | O=C1CCC(N2C(=O)c3ccc(C(=O)NCc4ccc(CNC(=O)C5(c6ccccc6Br)CC5)cc4)cc3C2=O)C(=O)N1 (stereo not drawn) [A70] |
| 60 to 90 | 14.4 ± 6.4 | O=C(Cc1cccc2ccccc12)NCc1ccc(CNCc2ccc3c(c2)C(=O)N(C2CCC(=O)NC2=O)C3=O)cc1 (stereo not drawn) [A175] |
| 60 to 90 | 16.7 ± 2.5 | CN(CCc1cccc2cccnc12)Cc1ccc(CNCc2ccc3c(c2)C(=O)N(C2CCC(=O)NC2=O)C3=O)cc1 (stereo not drawn) [A183] |
| 60 to 90 | 6.5 ± 0.3 | COc1cc(CN(C)CCn2c3ccccc3c3cccnc32)ccc1CNC(=O)c1ccc2c(c1)C(=O)N(C1CCC(=O)NC1=O)C2=O (stereo not drawn) [A114] |
| 60 to 90 | 17.8 ± 4.9 | CN(CCn1c2ccccc2c2cccnc21)Cc1ccc(CNC(=O)c2ccc3c(c2)C(=O)N(C2CCC(=O)NC2=O)C3=O)c(C(F)(F)F)c1 (stereo not drawn) [A120] |
| 60 to 90 | 36.1 ± 13.3 | O=C(Cn1c2ccccc2c2cccnc21)NCc1ccc(CNC(=O)c2ccc3c(c2)C(=O)N(C2CCC(=O)NC2=O)C3=O)cn1 (stereo not drawn) [A129] |
| 60 to 90 | 0.3 ± 0.2 | O=C(Cn1c2ccccc2c2cccnc21)NCc1ccc(CC(=O)Nc2ccc3c(c2)CN(C2CCC(=O)NC2=O)C3=O)cc1 (stereo not drawn) [A171] |
| 60 to 90 | 14.7 ± 4 | CC(C)(NC(=O)c1ccc2c(c1)C(=O)N(C1CCC(=O)NC1=O)C2=O)c1ccc(CNC(=O)Cn2c3ccccc3c3cccnc32)cc1 (stereo not drawn) [A146] |
| 60 to 90 | 2.5 ± 0.7 | O=C(Cn1c2ccccc2c2cccnc21)NCc1ccc(CNC(=O)c2ccc3c(c2)C(=O)N(C2CCC(=O)NC2=O)C3=O)c(F)c1 (stereo not drawn) [A104] |
